Measured values taken from ChEMBL document CHEMBL1687876, “Quercetin reduces neutrophil recruitment induced by CXCL8, LTB4, and fMLP: inhibition of actin polymerization” (J Nat Prod, 2011).
Activity calls are given as the source filed them. The rule behind the calls is not given here.

Tests used:
[1] = system: Neutrophil; test: Antiinflammatory activity in human neutrophil assessed as inhibition of fMLP-induced neutrophil chemoattraction 10 nM after 2 hrs by Boyden chamber v; type: functional, cell-based
[2] = system: Mus musculus; test: Inhibition of fMLP-induced neutrophil recruitment in Swiss mouse at 100 mg/kg, sc administered pre-inflammatory stimulus after 6 hrs by Newbauer chamber using Romanowsky stain; type: functional, organism-based; parameters: dose 100 mg/kg
[3] = system: Neutrophil; test: Antiinflammatory activity in human neutrophil assessed as inhibition of fMLP-induced neutrophil chemoattraction 100 nM after 2 hrs by Boyden chamber v; type: functional, cell-based
[4] = system: Mus musculus; test: Inhibition of CXCL1-induced neutrophil recruitment in Swiss mouse at 100 mg/kg, sc administered pre-inflammatory stimulus after 6 hrs by Newbauer chamber using Romanowsky stain; type: functional, organism-based; parameters: dose 100 mg/kg
[5] = system: Neutrophil; test: Inhibition of FLPR1 protein expression in human neutrophil at 100 nM after 30 mins by flow cytometry; type: functional, cell-based
[6] = system: Neutrophil; test: Antiinflammatory activity in human neutrophil assessed as inhibition of CXCL8-induced neutrophil chemoattraction 300 to 1000 nM after 2 hrs by Boyden chamber v; type: functional, cell-based
[7] = system: Neutrophil; test: Inhibition of LTB4-induced actin polymerization in human neutrophil at 100 nM after 30 mins by DAPI staining based immunofluorescence; type: functional, cell-based
[8] = system: Neutrophil; test: Inhibition of fMLP-induced actin polymerization in human neutrophil at 100 nM after 30 mins by DAPI staining based immunofluorescence; type: functional, cell-based
[9] = system: Neutrophil; test: Inhibition of CXCR2 protein expression in human neutrophil at 100 nM after 30 mins by flow cytometry; type: functional, cell-based
[10] = system: Mus musculus; test: Inhibition of CXCL1-induced neutrophil recruitment in Swiss mouse at 300 mg/kg, sc administered pre-inflammatory stimulus after 6 hrs by Newbauer chamber using Romanowsky stain; type: functional, organism-based; parameters: dose 300 mg/kg
[11] = system: Neutrophil; test: Antiinflammatory activity in human neutrophil assessed as inhibition of CXCL8-induced neutrophil chemoattraction 10 nM after 2 hrs by Boyden chamber v; type: functional, cell-based
[12] = system: Mus musculus; test: Inhibition of fMLP-induced neutrophil recruitment in Swiss mouse at 30 mg/kg, sc administered pre-inflammatory stimulus after 6 hrs by Newbauer chamber using Romanowsky stain; type: functional, organism-based; parameters: dose 30 mg/kg
[13] = system: Mus musculus; test: Inhibition of CXCL5-induced neutrophil recruitment in Swiss mouse at 30 mg/kg, sc administered pre-inflammatory stimulus after 6 hrs by Newbauer chamber using Romanowsky stain; type: functional, organism-based; parameters: dose 30 mg/kg
[14] = system: Neutrophil; test: Antiinflammatory activity in human neutrophil assessed as inhibition of fMLP-induced neutrophil chemoattraction 300 to 1000 nM after 2 hrs by Boyden chamber v; type: functional, cell-based
[15] = system: Mus musculus; test: Inhibition of CXCL5-induced neutrophil recruitment in Swiss mouse at 300 mg/kg, sc administered pre-inflammatory stimulus after 6 hrs by Newbauer chamber using Romanowsky stain; type: functional, organism-based; parameters: dose 300 mg/kg
[16] = system: Neutrophil; test: Antiinflammatory activity in human neutrophil assessed as inhibition of CXCL8-induced neutrophil chemoattraction 30 nM after 2 hrs by Boyden chamber v; type: functional, cell-based
[17] = system: Neutrophil; test: Inhibition of BLT1 protein expression in human neutrophil at 100 nM after 30 mins by flow cytometry; type: functional, cell-based
[18] = system: Neutrophil; test: Inhibition of CXCR1 protein expression in human neutrophil at 100 nM after 30 mins by flow cytometry; type: functional, cell-based
[19] = system: Neutrophil; test: Antiinflammatory activity in human neutrophil assessed as inhibition of fMLP-induced neutrophil chemoattraction 30 nM after 2 hrs by Boyden chamber v; type: functional, cell-based
[20] = system: Mus musculus; test: Inhibition of LTB4-induced neutrophil recruitment in Swiss mouse at 30 mg/kg, sc administered pre-inflammatory stimulus after 6 hrs by Newbauer chamber using Romanowsky stain; type: functional, organism-based; parameters: dose 30 mg/kg
[21] = system: Neutrophil; test: Antiinflammatory activity in human neutrophil assessed as inhibition of LTB4-induced neutrophil chemoattraction 30 nM after 2 hrs by Boyden chamber v; type: functional, cell-based
[22] = system: Neutrophil; test: Antiinflammatory activity in human neutrophil assessed as inhibition of LTB4-induced neutrophil chemoattraction 100 nM after 2 hrs by Boyden chamber v; type: functional, cell-based
[23] = system: Neutrophil; test: Inhibition of CXCL8-induced actin polymerization in human neutrophil at 100 nM after 30 mins by DAPI staining based immunofluorescence; type: functional, cell-based
[24] = system: Mus musculus; test: Inhibition of CXCL5-induced neutrophil recruitment in Swiss mouse at 100 mg/kg, sc administered pre-inflammatory stimulus after 6 hrs by Newbauer chamber using Romanowsky stain; type: functional, organism-based; parameters: dose 100 mg/kg
[25] = system: Mus musculus; test: Inhibition of CXCL1-induced neutrophil recruitment in Swiss mouse at 30 mg/kg, sc administered pre-inflammatory stimulus after 6 hrs by Newbauer chamber using Romanowsky stain; type: functional, organism-based; parameters: dose 30 mg/kg
[26] = system: Neutrophil; test: Antiinflammatory activity in human neutrophil assessed as inhibition of LTB4-induced neutrophil chemoattraction 300 to 1000 nM after 2 hrs by Boyden chamber v; type: functional, cell-based
[27] = system: Mus musculus; test: Inhibition of fMLP-induced neutrophil recruitment in Swiss mouse at 300 mg/kg, sc administered pre-inflammatory stimulus after 6 hrs by Newbauer chamber using Romanowsky stain; type: functional, organism-based; parameters: dose 300 mg/kg
[28] = system: Mus musculus; test: Inhibition of LTB4-induced neutrophil recruitment in Swiss mouse at 100 mg/kg, sc administered pre-inflammatory stimulus after 6 hrs by Newbauer chamber using Romanowsky stain; type: functional, organism-based; parameters: dose 100 mg/kg
[29] = system: Neutrophil; test: Antiinflammatory activity in human neutrophil assessed as inhibition of CXCL8-induced neutrophil chemoattraction 100 nM after 2 hrs by Boyden chamber v; type: functional, cell-based
[30] = system: Neutrophil; test: Antiinflammatory activity in human neutrophil assessed as inhibition of LTB4-induced neutrophil chemoattraction 10 nM after 2 hrs by Boyden chamber v; type: functional, cell-based
[31] = system: Mus musculus; test: Inhibition of LTB4-induced neutrophil recruitment in Swiss mouse at 300 mg/kg, sc administered pre-inflammatory stimulus after 6 hrs by Newbauer chamber using Romanowsky stain; type: functional, organism-based; parameters: dose 300 mg/kg

With `O=c1c(O)c(-c2ccc(O)c(O)c2)oc2cc(O)cc(O)c12` the inhibition [1] was “Active”, the inhibition [2] was “Active” and the inhibition [3] was “Active”. For the same compound, the inhibition [4] was “Active”, the inhibition [5] was “inactive” and the inhibition [6] was “Active”. The inhibition [7] was “Active”, the inhibition [8] was “Active” and the inhibition [9] was “inactive”. For the same compound, the inhibition [10] was “Active”, the inhibition [11] was “Active” and the inhibition [12] was “Active”. The inhibition [13] was “inactive”, the inhibition [14] was “Active” and the inhibition [15] was “Active”. The inhibition [16] was “Active”, the inhibition [17] was “inactive” and the inhibition [18] was “inactive”. For the same compound, the inhibition [19] was “Active”, the inhibition [20] was “inactive” and the inhibition [21] was “Active”. The inhibition [22] was “Active”, the inhibition [23] was “Active” and the inhibition [24] was “Active”. The inhibition [25] was “inactive”, the inhibition [26] was “Active” and the inhibition [27] was “Active”. For the same compound, the inhibition [28] was “Active”, the inhibition [29] was “Active” and the inhibition [30] was “Active”. The inhibition [31] was “Active”.
